From ChEMBL document CHEMBL1151564, “Arylacetamide kappa-selective opioid ligands” (Bioorg Med Chem Lett, 1997) come the findings set out here.

One test addresses Mu-type opioid receptor (Cavia porcellus, UniProt P97266). The test is described as follows: Compound was evaluated for the inhibition of Opioid receptor mu 1 binding to guinea pig brain membranes, using [3H]- DAMGO as radioligand.
Test [1] deals with Kappa-type opioid receptor (Cavia porcellus, UniProt P41144). Briefly: Compound was evaluated for the inhibition of Opioid receptor kappa1 binding to guinea pig brain membranes, using 1 nM [3H]- U69,593 as radioligand.
Kappa-type opioid receptor, sequence (P41144 whole entry): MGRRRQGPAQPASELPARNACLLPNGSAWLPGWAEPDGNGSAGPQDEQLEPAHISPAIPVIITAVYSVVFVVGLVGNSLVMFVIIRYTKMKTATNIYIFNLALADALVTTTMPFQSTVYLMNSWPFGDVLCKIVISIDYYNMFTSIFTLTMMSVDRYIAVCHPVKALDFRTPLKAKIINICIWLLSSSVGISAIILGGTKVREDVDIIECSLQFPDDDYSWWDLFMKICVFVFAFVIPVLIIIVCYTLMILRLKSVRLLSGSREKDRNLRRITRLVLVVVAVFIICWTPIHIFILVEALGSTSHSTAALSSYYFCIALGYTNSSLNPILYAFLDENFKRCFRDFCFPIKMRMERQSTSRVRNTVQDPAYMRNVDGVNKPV
A short description of test [2]: Total binding was evaluated by Phycoerythrin fluorescent labeling of R1EGO mouse thymoma cells. The format is functional.
The nature of test [3]: Percent specific binding was evaluated by Phycoerythrin fluorescent labeling of R1EGO mouse thymoma cells. It is filed as functional.
Test [4] in a line: Nonspecific binding was evaluated by Phycoerythrin fluorescent labeling of R1EGO mouse thymoma cells. It is filed as functional.
The nature of test [5]: Specific binding was evaluated by Phycoerythrin fluorescent labeling of R1EGO mouse thymoma cells. It is filed as functional.

Mu-type opioid receptor, sequence (P97266 whole entry): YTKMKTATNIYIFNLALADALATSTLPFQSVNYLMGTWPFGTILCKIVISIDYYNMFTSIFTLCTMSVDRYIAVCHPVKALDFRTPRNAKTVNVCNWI

In general, Ki refers to the dissociation constant of the complex between target and ligand, obtained from inhibition or displacement. Low readings indicate a stronger hold on the target, high ones a looser hold on the target. Take `CN(C(=O)Cc1ccc(Cl)c(Cl)c1)C(CN1CCCC1)c1cccc(N/C(S)=N/c2ccc(-c3c4ccc(=O)cc-4oc4cc(O)ccc34)c(C(=O)O)c2)c1` (stereo unspecified): the inhibition constant (Ki) on Mu-type opioid receptor worked out at 176 nM; in test [1], 8.2 nM.
For `CN(C(=O)Cc1ccc(Cl)c(Cl)c1)[C@H](CN1CCCC1)c1cccc(N/C(S)=N/c2ccc(-c3c4ccc(=O)cc-4oc4cc(O)ccc34)c(C(=O)O)c2)c1`, in test [2], the Total binding is given as 64. Moreover, the Ki stood at 98 nM at Mu-type opioid receptor and 1.4 nM in test [1]. Further, the Binding in test [3] stood at 91%. Further, in test [4], the Non-specific binding stood at 7. This compound came in with a Specific binding in test [5] of 57.
As for `CC(=O)Nc1cccc([C@@H](CN2CCCC2)N(C)C(=O)Cc2ccc(Cl)c(Cl)c2)c1`, the results for the inhibition constant (Ki) (at Mu-type opioid receptor; in test [1]) were 8.37 nM and 0.0855 nM, respectively.
For `CN(C(=O)Cc1ccc(Cl)c(Cl)c1)[C@@H](CN1CCCC1)c1cccc(N/C(S)=N/c2ccc(-c3c4ccc(=O)cc-4oc4cc(O)ccc34)c(C(=O)O)c2)c1`, in test [2], the Total binding stood at 12. For the same compound, the Ki at Mu-type opioid receptor came out at 1190 nM; in test [1] it was 139 nM. In addition, the Non-specific binding in test [4] is listed as -5.
`CC(=O)Nc1cccc([C@H](CN2CCCC2)N(C)C(=O)Cc2ccc(Cl)c(Cl)c2)c1`: the Ki turned out to be 1040 nM on Mu-type opioid receptor and 17.5 nM in test [1].
